Patent publication US20240174596A1 (Northwestern University, priority 2021, published 2024)
Structures can show the parent of a compound that is named as a salt. Where two headings read alike, the source gives them in different places.

Columns and labels:
hOAT [1] = target: T1, hOAT (Homo sapiens, UniProt P04181); assay: Fluoride ion release assay; assay type: biochemical
T1 construct: made in house; host or cells: E. coli BL21(DE3)
T1 sequence (P04181 26-439): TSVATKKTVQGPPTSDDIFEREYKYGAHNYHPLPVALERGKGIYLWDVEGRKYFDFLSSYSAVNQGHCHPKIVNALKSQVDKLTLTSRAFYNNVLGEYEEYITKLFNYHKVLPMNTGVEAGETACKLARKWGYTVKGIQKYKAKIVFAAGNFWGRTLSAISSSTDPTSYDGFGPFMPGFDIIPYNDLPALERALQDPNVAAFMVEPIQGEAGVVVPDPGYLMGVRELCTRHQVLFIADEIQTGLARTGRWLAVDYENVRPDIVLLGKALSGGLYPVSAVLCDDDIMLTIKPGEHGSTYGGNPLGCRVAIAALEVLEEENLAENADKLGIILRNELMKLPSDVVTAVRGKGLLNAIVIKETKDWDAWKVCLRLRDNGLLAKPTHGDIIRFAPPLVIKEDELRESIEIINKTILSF
Description: The fluoride ion release assay was conducted using previous protocols.^10 The final concentration of enzyme in the sample was determined via BCA protein assay kit (Pierce, cat: 23225). A calibration curve of voltage (V, mV) was generated from varying concentrations of NaF (F, μM). For accurate detection of fluoride ion concentration, 10 μM of fluoride ion was added to each control and sample The number of fluoride ions released per active site was calculated by the ratio of the fluoride ion release concentration and enzyme concentration.

CYP 2C19 = CYP 2C19 (Homo sapiens, UniProt P33261); assay: CYP inhibition 2C19; assay type: in vitro ADME
hOAT [2] = target: T1, hOAT; assay: Partition ratio experiment (titration of hOAT); assay type: biochemical
Description: FIG. 9. Titration of hOAT with SS-1-148. The loss of enzyme activity was measured as a function of the ratio of […] to enzyme concentration. Linear regression was used on the linear portion of the curves to obtain the X-intercept, which was the turnover number (partition ratio=turnover number−1).
The partition ratio was calculated using previous protocols.^8-10

[3] = Plasma protein binding, mouse; assay type: in vitro ADME
[4] = Liver microsomal stability, mouse; assay type: in vitro ADME
[5] = Plasma protein binding, human; assay type: in vitro ADME
CYP 2C9 = CYP 2C9 (Homo sapiens, UniProt P11712); assay: CYP inhibition 2C9; assay type: in vitro ADME
hOAT [6] = target: T1, hOAT; assay: Time-dependent dialysis of inhibited hOAT; assay type: biochemical; conditions: up to 48 h against buffer with excessive PLP and α-KG
Description: Plausible Inactivation Mechanisms of SS-1-148 with hOAT. The irreversibility of the inhibition of hOAT by SS-1-148 was evaluated by a time-dependent dialysis experiment up to 48 h against a buffer consisting of excessive PLP and α-KG (FIG. 10). […] To reveal the structure of the final product in the inactivation reaction, we co-crystallized hOAT with an excessive amount of SS-1-148. […] It also contains three copies of the protein monomer in one asymmetric unit. Similar to the soaking crystal structure shown in FIG. 4A, PLP is covalently linked to SS-1-148 moiety in the cocrystal structure. However, no covalent bond is noticed between Lys292 and the final product. Moreover, in the published crystal structure of the native enzyme (holo-hOAT), Arg413 typically forms a salt bridge with Glu235, which is found intact for several cocrystals of hOAT with different inactivators.^14, 23, 26 In the hOAT/SS-1-148 soaking result (FIG. 4A), the salt bridge of Arg413-Glu235 is broken due to the existence of an alternative salt bridge between the carboxylate of one intermediate and Arg413. […] Instead, Arg413, Gln266, and the final product are hydrogen-bonded to the same water molecule.
The dialysis experiment was conducted using previous protocols.^8-10

Aqueous solubility = assay type: physicochemical; conditions: aqueous medium (not further specified); HCl salt
CYP 1A2 = target: T2, CYP 1A2 (Homo sapiens, UniProt P05177); assay: CYP inhibition 1A2; assay type: in vitro ADME
T2 sequence (P05177 1-516): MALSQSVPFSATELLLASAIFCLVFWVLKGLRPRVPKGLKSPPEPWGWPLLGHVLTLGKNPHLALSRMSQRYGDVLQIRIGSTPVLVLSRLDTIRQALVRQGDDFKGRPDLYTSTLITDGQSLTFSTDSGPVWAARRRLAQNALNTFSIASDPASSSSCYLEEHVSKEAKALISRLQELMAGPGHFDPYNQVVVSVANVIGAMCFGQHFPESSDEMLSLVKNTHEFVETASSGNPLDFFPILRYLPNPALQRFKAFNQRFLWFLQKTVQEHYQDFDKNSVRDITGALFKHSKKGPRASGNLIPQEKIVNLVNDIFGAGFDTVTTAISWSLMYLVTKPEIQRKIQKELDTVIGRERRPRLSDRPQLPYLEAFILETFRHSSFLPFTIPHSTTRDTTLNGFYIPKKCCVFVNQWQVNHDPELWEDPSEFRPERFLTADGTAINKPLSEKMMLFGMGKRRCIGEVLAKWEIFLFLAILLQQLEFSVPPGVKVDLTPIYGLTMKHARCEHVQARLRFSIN

Brain/plasma PK studies = assay type: in vivo; conditions: brain, read-out: B/P ratio
Plasma PK profiles = assay type: in vivo

Chain of CYP 2C9 (P11712 whole entry): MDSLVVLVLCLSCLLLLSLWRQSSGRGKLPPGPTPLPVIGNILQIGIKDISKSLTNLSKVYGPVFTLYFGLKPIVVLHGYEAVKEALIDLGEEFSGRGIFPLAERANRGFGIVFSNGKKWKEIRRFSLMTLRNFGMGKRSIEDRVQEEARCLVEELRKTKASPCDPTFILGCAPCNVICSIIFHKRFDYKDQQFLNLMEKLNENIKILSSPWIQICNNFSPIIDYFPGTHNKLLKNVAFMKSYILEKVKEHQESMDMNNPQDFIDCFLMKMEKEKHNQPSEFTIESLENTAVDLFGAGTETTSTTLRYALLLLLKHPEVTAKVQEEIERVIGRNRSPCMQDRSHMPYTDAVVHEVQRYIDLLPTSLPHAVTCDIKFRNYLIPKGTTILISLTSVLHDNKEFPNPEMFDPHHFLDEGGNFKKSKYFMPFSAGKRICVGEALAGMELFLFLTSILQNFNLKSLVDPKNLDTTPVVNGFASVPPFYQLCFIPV
Chain of CYP 2C19 (P33261 whole entry): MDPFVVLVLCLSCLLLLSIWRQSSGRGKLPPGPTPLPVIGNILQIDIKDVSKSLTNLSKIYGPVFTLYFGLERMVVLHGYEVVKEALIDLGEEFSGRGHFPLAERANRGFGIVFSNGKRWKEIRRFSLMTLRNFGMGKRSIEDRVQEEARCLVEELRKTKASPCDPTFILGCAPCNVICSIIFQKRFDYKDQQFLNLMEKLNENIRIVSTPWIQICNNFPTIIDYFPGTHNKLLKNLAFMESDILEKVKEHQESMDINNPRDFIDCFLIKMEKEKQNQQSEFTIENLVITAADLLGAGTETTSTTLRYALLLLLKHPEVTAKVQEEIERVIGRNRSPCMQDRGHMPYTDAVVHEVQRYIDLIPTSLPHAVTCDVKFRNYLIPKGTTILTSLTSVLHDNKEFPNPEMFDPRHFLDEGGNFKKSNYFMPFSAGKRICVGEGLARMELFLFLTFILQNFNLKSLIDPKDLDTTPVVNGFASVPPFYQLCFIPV

## N[C@H]1C=C(C(=O)O)CC1(F)F [SS-1-148, (S)-3-Amino-4,4-difluorocyclopent-1-enecarboxylic acid hydrochloric acid salt]
hOAT [1]
  fluoride ion released per inactivation event: 33.9±0.8 equivalents
hOAT [1]; without α-KG, triplicate, mean with standard deviation
  Fluoride ion release: 33.9 ± 0.8
CYP 2C19
  IC50: > 100 µM
hOAT [2]
  equivalents turned over per active site for each equivalent leading to inactivation: 34.9 equivalents
[3]
  fraction unbound: 1
[4]
  Liver microsomal stability (t1/2) Mouse: N/C
[5]
  fraction unbound: 1
CYP 2C9
  IC50: > 100 µM
hOAT [6]
  remaining activity of hOAT after dialysis: unchanged
Aqueous solubility
  solubility: > 50 mM
CYP 1A2
  IC50: > 100 µM
Brain/plasma PK studies; IV (5 mg/kg)
  Kp at 0.25 h: 0.2
Brain/plasma PK studies; PO (30 mg/kg)
  Kp at 0.25 h: 0.14
Brain/plasma PK studies; PO (30 mg/kg), 2 h
  Kp at 2 h: 0.26
Plasma PK profiles; IV (5 mg/kg)
  AUC(0-inf): 1160 ng·h/mL
  AUC(0-t): 1150 ng·h/mL
  Cmax: 4680 ng/mL
  T1/2: 0.43 H
  clearance: 72 mL/min/kg
Plasma PK profiles; IV (5 mg/kg), read-out: Vss
  Vd: 1.01 L/kg
Plasma PK profiles; PO (30 mg/kg)
  AUC(0-inf): 8530 ng·h/mL
  AUC(0-t): 8440 ng·h/mL
  Cmax: 8080 ng/mL
  Tmax: 15 min
  bioavailability: ~100%
